The results in this text go back to patent US9795602B2, “Polycyclic-carbamoylpyridone compounds and their pharmaceutical use” (Gilead Sciences, Inc., priority 2014, dated 2017).

A short description of series [1]: Pharmacokinetics after intravenous infusion to male SD rats. Format: in vivo. As to conditions: Sprague-Dawley, plasma, rat, IV infusion 0.5 mg/kg; for Vd: read-out: Vss. As to the method: Pharmacokinetic analysis was performed on compounds 25b and 39 following intravenous or oral administration to rats.
The test compounds were formulated in 5% Ethanol, 55% PEG 300, and 40% water at 0.1 mg/mL for IV infusion and for oral dosing.
Each dosing group consisted of 3 male, Sprague-Dawley rats. At dosing, the animals weighed an average of 0.25 kg. The animals were fasted overnight prior to dose administration and up to 4 hr after dosing.
For the IV infusion group, the test article was administered by intravenous infusion over 30 min. The rate of infusion was adjusted according to the body weight of each animal to deliver a dose of 0.5 mg/kg. For the oral dosing group, the test article was administered by oral gavage at 5 mL/kg for a dose of 0.5 mg/kg.
For pharmacokinetic analysis of intravenously administered compounds, serial venous blood samples (approximately 0.3 mL each) were taken from each animal at 0, 0.250, 0.483, 0.583, 0.750, 1.50, 3.00, 6.00, 8.00, 12.0, 24.0, 48 and 72 hours after dosing. The blood samples were collected into Vacutainer™ tubes containing EDTA-K2 as the anti-coagulant and were immediately placed on wet ice pending centrifugation for plasma. An LC/MS/MS method was used to measure the concentration of the test compound in plasma. An aliquot of 50 μL of each plasma sample was added to a clean 96 well plate, and 200 μL of cold acetonitrile/internal standard solution (ACN)/(ISTD) was added. After protein precipitation, an aliquot of 110 μL of the supernatant was transferred to a clean 96-well plate and diluted with 300 μL of water. An aliquot of 10 μL of the above solution was injected into a ABSciex API-4000 triple quadrupole LC/MS/MS system utilizing a HyPurity C18 HPLC column (30×2.1 mm, 3μ), from Thermo-Hypersil (Part #22103-032130). An Agilent 1200 series binary pump (P/N G1312A Bin Pump) was used for elution and separation, and an HTS Pal autosampler (LEAP Technologies, Carrboro, N.C.) was used for sample injection. A API-4000 triple quadrupole mass spectrometer was utilized in multiple reaction monitoring mode (Applied Biosystems, Foster City, Calif.). Liquid chromatography was performed using two mobile phases: mobile phase A contained 0.1% formic acid and 1% isopropylamine in aqueous solution, and mobile phase B contained […]. Non-compartmental pharmacokinetic analysis was performed on the plasma concentration-time data. The resulting data are shown in the first three columns of Table 2. In Table 2, Cl refers to clearance, which characterizes the rate at which drug is removed from plasma. The lower the clearance of a drug is, the longer the elimination half-life is in the body. Vss refers to the steady state volume of distribution and indicates how well a drug is distributed into the tissues. The larger the Vss is, the longer the elimination half-life is in the body. MRT refers to mean residence time, which is a measure of the average time molecules exist in the body.

For a further series, the target named is OCT2 (Homo sapiens (Human), UniProt O15244). Description: OCT2 inhibition assay (14C-TEA uptake, OCT2-transfected MDCKII cells). Format: cell-based. The procedure:
MDCKII cells were maintained in minimal essential medium (MEM) with 1% Pen/Strep, 10% fetal bovine serum, and 0.25 mg/mL hygromycin B in an incubator set at 37° C., 90% humidity and 5% CO2. 24 hours prior to assay, media containing 5 mM sodium butyrate were added to MDCKII cells in flasks, and cells were grown to 80-90% confluence. On assay day, cells were trypsinized and resuspended in Krebs-Henseleit Buffer (KHB), pH 7.4 at […]. Cells were preincubated for 15 min in assay plate before addition of test compound or substrate.
Test compounds were serially diluted in DMSO and then spiked (2 μL) into in 0.4 mL KHB buffer containing wild-type or OCT2-transfected cells and incubated for 10 minutes. Assay was initiated with the addition of 0.1 mL of 100 μM ^14C-TEA in KHB buffer (20 μM final concentration after mixing). The concentration of TEA is based on the Km. After 10 minutes of incubation, the assay mixture was quenched with addition of 0.5 mL of ice-cold 1×PBS buffer. Samples were then centrifuged at 1000 rpm for 5 min and supernatants were removed. Wash steps were repeated four times with ice-cold PBS. Finally, the cell pellets were lysed with 0.2N NaOH and let sit at room temperature for at least 30 min to ensure complete lysis. Samples were then counted on liquid scintillation counter and dpm counts were used to perform the following calculations. The % inhibition was calculated as follows: % inhibition=[1−{[OCT2]i−[WT]ni}/{[OCT2]ni−[WT]ni}]*100 where, [OCT2]i represents the dpm count in the presence of test compound for either OCT2 cells, […] of test compound for OCT2 cells and [WT]ni represents the dpm count in the absence of test compound for wild type cells, respectively.

Another series deals with PXR (NR1I2) (Homo sapiens (Human), UniProt O75469). Nature of the series: Human PXR activation assay (luciferase reporter, DPX2 cells). Particulars: human; 15 uM; DPX2 cells; % Emax relative to rifampicin, adjusted for DMSO background; read-out: PXR % inh at 15 uM (adjusted). Format: cell-based. The procedure: Luciferase Reporter Gene Assay.
PXR (NR1I2), sequence (O75469 whole entry): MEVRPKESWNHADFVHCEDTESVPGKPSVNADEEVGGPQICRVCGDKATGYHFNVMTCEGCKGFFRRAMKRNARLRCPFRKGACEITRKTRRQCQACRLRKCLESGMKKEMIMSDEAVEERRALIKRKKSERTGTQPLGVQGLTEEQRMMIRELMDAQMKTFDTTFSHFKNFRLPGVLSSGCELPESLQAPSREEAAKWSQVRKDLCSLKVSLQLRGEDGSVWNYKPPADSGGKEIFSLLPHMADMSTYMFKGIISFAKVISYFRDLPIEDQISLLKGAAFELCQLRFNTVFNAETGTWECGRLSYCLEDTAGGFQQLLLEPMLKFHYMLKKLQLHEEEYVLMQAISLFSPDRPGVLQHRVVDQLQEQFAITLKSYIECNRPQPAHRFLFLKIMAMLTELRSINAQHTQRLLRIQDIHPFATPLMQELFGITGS
A stably transformed tumor cell line (DPX2) was plated on 96-well microtiter plates. […]. The number of viable cells was determined and the reporter gene activity was assessed. […]

In the next series the test system is HIV-IIIb. Description: Antiviral assay in MT4 cells. Particulars: Human immunodeficiency virus 1, IIIB, MT4, 120 h, MT4 cells, HIV-IIIb, 5 days; read-out: EC50. The format is cell-based. The method, boiled down:
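MT4 cells infected with HIV-IIIb (0.004 m.o.i.) or mock-infected, then plated at 2000 cells per well with compound. After 5 days at 37 °C, cell viability read by CellTiter-Glo chemiluminescence.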

OCT2, sequence (O15244 whole entry): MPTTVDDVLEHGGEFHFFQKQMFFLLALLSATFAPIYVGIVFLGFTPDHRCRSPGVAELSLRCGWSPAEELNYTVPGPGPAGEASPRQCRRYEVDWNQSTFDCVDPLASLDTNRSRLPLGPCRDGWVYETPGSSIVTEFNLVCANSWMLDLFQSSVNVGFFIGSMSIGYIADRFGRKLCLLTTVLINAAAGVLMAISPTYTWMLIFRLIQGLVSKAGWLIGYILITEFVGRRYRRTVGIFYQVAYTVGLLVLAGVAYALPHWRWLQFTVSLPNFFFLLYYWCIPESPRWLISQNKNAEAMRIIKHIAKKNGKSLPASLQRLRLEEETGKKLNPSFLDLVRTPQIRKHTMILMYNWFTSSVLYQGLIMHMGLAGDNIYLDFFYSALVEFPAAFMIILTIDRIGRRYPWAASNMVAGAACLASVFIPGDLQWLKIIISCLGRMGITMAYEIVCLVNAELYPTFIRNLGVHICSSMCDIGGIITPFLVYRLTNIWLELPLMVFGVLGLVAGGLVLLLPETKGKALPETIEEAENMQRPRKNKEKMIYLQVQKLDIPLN

As for `CCN1C(=O)c2c(O)c(=O)c(C(=O)NCc3ccc(F)c(Cl)c3F)cn2[C@H]2CCOC[C@H]21` [Compound 39], in series [1], the MRT worked out at 105 h, the clearance was 2.3 mL/h/kg and the Vd came to 0.212 L/kg. This compound also had a half-inhibitory concentration (IC50) on OCT2 of 10 µM. Besides, the inhibition at 24 h, 15 µM on PXR (NR1I2) amounted to 5%. In the series on HIV-IIIb, the EC50 was 0.00258 µM.
For `CCN1C(=O)c2c(O)c(=O)c(C(=O)NCc3ccc(F)c(Cl)c3F)cn2[C@H]2CCO[C@H]21` [Compound 25b], in series [1], the mean residence time (MRT) came out at 119 h, the clearance is 1.3 mL/h/kg and the Vd stood at 0.141 L/kg. Besides, it took 10 µM to reach half-maximal inhibition at OCT2 (IC50). On PXR (NR1I2), the inhibition at 24 h, 15 µM worked out at 13%. Moreover, the EC50 in the series with HIV-IIIb was determined as 0.00437 µM.
